Patent US10195185B2, “3-(1H-imidazo[4,5-C]pyridin-2-yl)-1H-pyrazolo[4,3-B]pyridines and therapeutic uses thereof” (Samumed, LLC, priority 2015, dated 2019)

Columns and labels:
[1] = system: IL-6 in human monocyte cell line (THP-1 cells); test: IL-6 inhibition in LPS-stimulated THP-1 cells (HTRF); assay type: cell-based; conditions: IL-6 in LPS-stimulated THP-1 cells; for EC50: HTRF; for inhibition at 10 µM: read-out: percent inhibition in brackets beside EC50 >10 μM
Procedure, shortened: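 Readout is the 665/620 nm HTRF ratio for secreted IL-6, normalized to DMSO wells, with EC50 from a variable-slope four-parameter fit, or % inhibition at 10 μM when above 10 μM. Cells (1% FBS, 24 h beforehand) got compound for 2 h, then LPS 500 ng/mL for 22 h at 37° C; top dose 10 μM, 0.1% DMSO.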

[2] = system: primary human mesenchymal stem cells (hMSCs); test: Induction of chondrogenesis in hMSCs (nodule area, Rhodamine B / Nile Red); assay type: cell-based; conditions: TGF-β3 as positive control; for Emax: read-out: Max. Activity as % TGF-β3 activity; for EC50: concentration required to induce 50% levels of chondrogenesis, read-out: Conc (nM) of 50% TGF-β3 activity
Procedure, shortened: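 Primary hMSCs (passage 3–6) in incomplete chondrogenic induction medium were treated 6 days at 37° C. with 1:3 dilutions (2700–10 nM in 96-well or 5000–2.2 nM in 384-well; 0.03% DMSO). Rhodamine B/Nile Red-stained nodule area was imaged, normalized to DMSO wells, and EC50 was set against TGF-β3 (10 ng/mL).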

EC50 [1] | EC50 [2] | Structure (SMILES) | inhibition at 10 µM [1] | Emax [2]
> 10 µM | – | CN(C)CCNc1cc(F)cc(-c2nccc3[nH]c(-c4n[nH]c5ccc(-c6ccccn6)nc45)nc23)c1 [Compound 476, N^1-(3-Fluoro-5-(2-(5-(pyridin-2-yl)-1H-pyrazolo[4,3-b]pyridin-3-yl)-1H-imidazo[4,5-c]pyridin-4-yl)phenyl)-N^2,N^2-dimethylethane-1,2-diamine] | 35.8% | –
> 10 µM | – | Fc1cccc(-c2nccc3[nH]c(-c4n[nH]c5ccc(C6CCNCC6)nc45)nc23)c1 [Compound 505, 3-(4-(3-Fluorophenyl)-1H-imidazo[4,5-c]pyridin-2-yl)-5-(piperidin-4-yl)-1H-pyrazolo[4,3-b]pyridine] | 9.3% | 46%
> 10 µM | – | O=C(Nc1cncc(-c2ccc3[nH]nc(-c4nc5c(-c6cccc(F)c6)nccc5[nH]4)c3n2)c1)C1CC1 [Compound 20, N-(5-(3-(4-(3-Fluorophenyl)-1H-imidazo[4,5-c]pyridin-2-yl)-1H-pyrazolo [4,3-b]pyridin-5-yl)pyridin-3-yl)cyclopropanecarboxamide] | 0% | –
> 10 µM | – | c1cncc(-c2nccc3[nH]c(-c4n[nH]c5ccc(-c6cncc(OC7CCCCC7)c6)nc45)nc23)c1 [Compound 559, 5-(5-(Cyclohexyloxy)pyridin-3-yl)-3-(4-(pyridin-3-yl)-1H-imidazo[4,5-c]pyridin-2-yl)-1H-pyrazolo[4,3-b]pyridine] | 42.7% | –
> 10 µM | – | Cc1cn(-c2nccc3[nH]c(-c4n[nH]c5ccc(-c6cncc(OCCN(C)C)c6)nc45)nc23)cn1 [Compound 627, N,N-Dimethyl-2-((5-(3-(4-(4-methyl-1H-imidazol-1-yl)-1H-imidazo[4,5-c]pyridin-2-yl)-1H-pyrazolo[4,3-b]pyridin-5-yl)pyridin-3-yl)oxy)ethan-1-amine] | 17.6% | –
> 10 µM | – | Cc1ccc(-c2nccc3[nH]c(-c4n[nH]c5ccc(-c6cncc(NC(=O)C7CCCC7)c6)nc45)nc23)s1 [Compound 414, N-(5-(3-(4-(5-Methylthiophen-2-yl)-1H-imidazo[4,5-c]pyridin-2-yl)-1H-pyrazolo[4,3-b]pyridin-5-yl)pyridin-3-yl)cyclopentanecarboxamide] | 46.3% | –
> 10 µM | 21 nM | COc1cncc(-c2ccc3[nH]nc(-c4nc5c(-c6cccc(F)c6)nccc5[nH]4)c3n2)c1 [Compound 516, 3-(4-(3-Fluorophenyl)-1H-imidazo[4,5-c]pyridin-2-yl)-5-(5-methoxypyridin-3-yl)-1H-pyrazolo[4,3-b]pyridine] | 25.1% | 60%
> 10 µM | – | Fc1cccc(-c2nccc3[nH]c(-c4n[nH]c5ccc(-c6cncc(OCCN7CCCC7)c6)nc45)nc23)c1 [Compound 514, 3-(4-(3-Fluorophenyl)-1H-imidazo[4,5-c]pyridin-2-yl)-5-(5-(2-(pyrrolidin-1-yl)ethoxy)pyridin-3-yl)-1H-pyrazolo[4,3-b]pyridine] | 47.8% | –
1.25 µM | 30 nM | CC(C)Nc1cncc(-c2ccc3[nH]nc(-c4nc5c(-c6cc(F)cc(NCCN(C)C)c6)nccc5[nH]4)c3n2)c1 [Compound 460, N^1-(3-Fluoro-5-(2-(5-(5-(isopropylamino)pyridin-3-yl)-1H-pyrazolo[4,3-b]pyridin-3-yl)-1H-imidazo[4,5-c]pyridin-4-yl)phenyl)-N^2,N^2-dimethylethane-1,2-diamine] | – | 116%
3.1 µM | – | Oc1cncc(-c2ccc3[nH]nc(-c4nc5c(-c6cccnc6)nccc5[nH]4)c3n2)c1 [Compound 565, 5-(3-(4-(Pyridin-3-yl)-1H-imidazo[4,5-c]pyridin-2-yl)-1H-pyrazolo[4,3-b]pyridin-5-yl)pyridin-3-ol] | – | –
> 10 µM | – | O=C(Nc1cncc(-c2ccc3[nH]nc(-c4nc5c(-c6cccs6)nccc5[nH]4)c3n2)c1)C1CC1 [Compound 356, N-(5-(3-(4-(Thiophen-2-yl)-1H-imidazo[4,5-c]pyridin-2-yl)-1H-pyrazolo [4,3-b]pyridin-5-yl)pyridin-3-yl)cyclopropanecarboxamide] | 0% | –
> 10 µM | – | O=C(CC1CCNCC1)Nc1cncc(-c2ccc3[nH]nc(-c4nc5c(-c6ccccn6)nccc5[nH]4)c3n2)c1 [Compound 593, 2-(Piperidin-4-yl)-N-(5-(3-(4-(pyri-2-yl)-1H-imidazo[4,5-c]pyridin-2-yl)-1H-pyrazolo[4,3-b]pyridin-5-yl)pyridin-3-yl)acetamide] | 32.5% | –
> 10 µM | – | Cn1cc(-c2ccc3[nH]nc(-c4nc5c(-c6cccc(F)c6)nccc5[nH]4)c3n2)cn1 [Compound 508, 3-(4-(3-Fluorophenyl)-1H-imidazo[4,5-c]pyridin-2-yl)-5-(1-methyl-1H-pyrazol-4-yl)-1H-pyrazolo[4,3-b]pyridine] | 0% | 43%
> 10 µM | – | c1cc2[nH]c(-c3n[nH]c4ccc(-c5cncc(OCCN6CCCC6)c5)nc34)nc2c(N2CCCCC2)n1 [Compound 610, 3-(4-(Piperidin-1-yl)-1H-imidazo[4,5-c]pyridin-2-yl)-5-(5-(2-(pyrrolidin-1-yl)ethoxy)pyridin-3-yl)-1H-pyrazolo[4,3-b]pyridine] | 34.9% | –
1.03 µM | – | CCNCc1cncc(-c2ccc3[nH]nc(-c4nc5c(-c6cc(F)cc(NCCN(C)C)c6)nccc5[nH]4)c3n2)c1 [Compound 454, N^1-(3-(2-(5-(5-((Ethylamino)methyl)pyridin-3-yl)-1H-pyrazolo[4,3-b]pyridin-3-yl)-1H-imidazo[4,5-c]pyridin-4-yl)-5-fluorophenyl)-N^2,N^2-dimethylethane-1,2-diamine] | – | 36%
> 10 µM | 7 nM | Fc1cccc(-c2nccc3[nH]c(-c4n[nH]c5ccc(-c6cn[nH]c6)nc45)nc23)c1 [Compound 507, 3-(4-(3-Fluorophenyl)-1H-imidazo[4,5-c]pyridin-2-yl)-5-(1H-pyrazol-4-yl)-1H-pyrazolo[4,3-b]pyridine] | 0% | 70%
> 10 µM | 10 nM | CN(C)Cc1cncc(-c2ccc3[nH]nc(-c4nc5c(-c6cccs6)nccc5[nH]4)c3n2)c1 [Compound 349, N,N-dimethyl-1-(5-(3-(4-(thiophen-2-yl)-1H-imidazo[4,5-c]pyridin-2-yl)-1H-pyrazolo[4,3-b]pyridin-5-yl)pyridin-3-yl)methanamine] | 0% | 75%
> 10 µM | 100 nM | CCCCC(=O)Nc1cncc(-c2ccc3[nH]nc(-c4nc5c(-c6cc(F)cc(NCCN(C)C)c6)nccc5[nH]4)c3n2)c1 [Compound 467, N-(5-(3-(4-(3-((2-(Dimethylamino)ethyl)amino)-5-fluorophenyl)-1H-imidazo[4,5-c]pyridin-2-yl)-1H-pyrazolo[4,3-b]pyridin-5-yl)pyridin-3-yl)pentanamide] | 33.1% | 52%
0.142 µM | 10 nM | Cc1ccc(-c2nccc3[nH]c(-c4n[nH]c5ccc(-c6cncc(N)c6)nc45)nc23)s1 [Compound 395, 5-(3-(4-(5-Methylthiophen-2-yl)-1H-imidazo[4,5-c]pyridin-2-yl)-1H-pyrazolo[4,3-b]pyridin-5-yl)pyridin-3-amine] | – | 73%
> 10 µM | – | c1cc(-c2nccc3[nH]c(-c4n[nH]c5ccc(-c6cnccn6)nc45)nc23)ccn1 [Compound 584, 5-(Pyrazin-2-yl)-3-(4-(pyridin-4-yl)-1H-imidazo[4,5-c]pyridin-2-yl)-1H-pyrazolo[4,3-b]pyridine] | 32.2% | –
> 10 µM | – | CS(=O)(=O)NCc1cc(F)cc(-c2nccc3[nH]c(-c4n[nH]c5ccc(-c6cncnc6)nc45)nc23)c1 [Compound 503, N-(3-Fluoro-5-(2-(5-(pyrimidin-5-yl)-1H-pyrazolo[4,3-b]pyridin-3-yl)-1H-imidazo[4,5-c]pyridin-4-yl)benzyl)methanesulfonamide] | 40.8% | –
> 10 µM | – | c1ccc(COc2cncc(-c3ccc4[nH]nc(-c5nc6c(-c7ccncc7)nccc6[nH]5)c4n3)c2)cc1 [Compound 582, 5-(5-(Benzyloxy)pyridin-3-yl)-3-(4-(pyridin-4-yl)-1H-imidazo[4,5-c]pyridin-2-yl)-1H-pyrazolo[4,3-b]pyridine] | 8.3% | –
> 10 µM | – | c1cc(-c2nccc3[nH]c(-c4n[nH]c5ccc(-c6cncc(OC7CCNCC7)c6)nc45)nc23)ccn1 [Compound 576, 5-(5-(Piperidin-4-yloxy)pyridin-3-yl)-3-(4-(pyridin-4-yl)-1H-imidazo[4,5-c]pyridin-2-yl)-1H-pyrazolo[4,3-b]pyridine] | 22.3% | –
> 10 µM | – | CS(=O)(=O)NCc1cc(F)cc(-c2nccc3[nH]c(-c4n[nH]c5ccc(-c6cncc(NC(=O)c7ccccc7)c6)nc45)nc23)c1 [Compound 487, N-(5-(3-(4-(3-Fluoro-5-(methylsulfonamidomethyl)phenyl)-1H-imidazo[4,5-c]pyridin-2-yl)-1H-pyrazolo[4,3-b]pyridin-5-yl)pyridin-3-yl)benzamide] | 16.9% | –
